The values below come from patent US8378117B2 (priority 2005, dated 2013).

One experiment deals with T1, CB2 receptor (Homo sapiens, UniProt P34972).
T1 construct: expressed in transfected cells
In words: Binding assay for CB2 agonists or inverse agonists (SK-N-MC membranes, [3H]-CP-55,940). Conditions: for CB2 receptor binding percent inhibition: test concentration not stated. On the procedure: (§1) The human CB1 and CB2 receptors were stably expressed in SK-N-MC cells transfected with pcDNA3 CB-1 (human) or pcDNA3 CB-2 (human). The cells were grown in T-180 cell culture flasks under standard cell culture conditions at 37° C. in a 5% CO2 atmosphere. The cells were harvested by trysinization and homogenized in a homogenization buffer (10 mM Tris, 0.2 mM MgCl2, 5 mM KCl, with protease inhibitors aprotinin, leupeptin, pepstatin A and bacitracin) and centrifuged (2000 g). The supernatant was then centrifuged in 2M sucrose (31,300 g) to produce a semi-purified membrane pellet. The pellet was resuspended in homogenization and stored at −80° C.
On the day of the assay, the pellet was thawed on ice and diluted in assay buffer (50 mM Tris-HCl, 5 mM MgCl2, 2.5 mM EDTA, 0.5 mg/mL fatty acid free bovine serum aldumin, pH 7.5). […] The plate was covered and incubated for 90 minutes at 30° C. The contents were then aspirated onto a Packard Unifilter GF/C filter bottom plate prewet with 0.5% polyethyleneimine. The wells of the polypropylene plate were rinsed and aspirated seven times with a 0.9% saline-0.5% Tween 20 solution. The Unifilter plate was dried, a scintillation cocktail was added to each well and the counts representing binding were quantitated in a TopCount scintillation counter.
(§2) For compounds tested, an IC50 binding value was obtained from percent inhibition studies in which various test concentrations were used. The binding value was calculated by linear regression.

A further experiment has as its target T2, CB1 receptor (Homo sapiens, UniProt P21554).
T2 construct: expressed in transfected cells
In words: Binding assay for CB1 agonists or inverse agonists (SK-N-MC membranes, [3H]-CP-55,940). Conditions: for inhibition at 1 µM: read-out: CB1 receptor binding percent inhibition, test concentration 1 μM (footnote 1); for inhibition at 0.2 µM: read-out: CB1 receptor binding percent inhibition, test concentration 0.2 μM (footnote 2); for inhibition at 0.25 µM: read-out: CB1 receptor binding percent inhibition, test concentration 0.25 μM (footnote 8). Here is the method:
as §1
On the day of the assay, the pellet was thawed on ice and diluted in assay buffer (50 mM Tris-HCl, 5 mM MgCl2, 2.5 mM EDTA, 0.5 mg/mL fatty acid free bovine serum aldumin, pH 7.5). The diluted membrane pellet was added with buffer, either a test compound or vehicle standard and the radioligand […] ([…]) to the wells of a 96-well polypropylene plate. Non-specific binding was measured in wells containing WIN 55,212 (10 uM). The plate was covered and incubated for 90 minutes at 30° C. The contents were then aspirated onto a Packard Unifilter GF/C filter bottom plate prewet with 0.5% polyethyleneimine. The wells of the polypropylene plate were rinsed and aspirated seven times with a 0.9% saline-0.5% Tween 20 solution. The Unifilter plate was dried, a scintillation cocktail was added to each well and the counts representing binding were quantitated in a TopCount scintillation counter.
as §2

Setting [1] is: test concentration 0.2 μM (footnote 2), read-out: CB2 receptor binding percent inhibition.

Read-outs that look alike come from different tables or passages of the source.

T1 sequence (P34972 whole entry): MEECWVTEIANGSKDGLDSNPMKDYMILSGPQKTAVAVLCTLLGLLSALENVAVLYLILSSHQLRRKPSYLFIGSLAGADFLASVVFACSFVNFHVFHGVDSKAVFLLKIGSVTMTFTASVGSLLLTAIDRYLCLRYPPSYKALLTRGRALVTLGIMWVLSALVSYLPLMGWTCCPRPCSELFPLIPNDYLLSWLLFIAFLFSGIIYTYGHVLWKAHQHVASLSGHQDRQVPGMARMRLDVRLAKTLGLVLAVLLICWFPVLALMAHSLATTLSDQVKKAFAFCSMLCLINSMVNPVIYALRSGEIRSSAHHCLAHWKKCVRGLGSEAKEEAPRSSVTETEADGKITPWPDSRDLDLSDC
T2 sequence (P21554 whole entry): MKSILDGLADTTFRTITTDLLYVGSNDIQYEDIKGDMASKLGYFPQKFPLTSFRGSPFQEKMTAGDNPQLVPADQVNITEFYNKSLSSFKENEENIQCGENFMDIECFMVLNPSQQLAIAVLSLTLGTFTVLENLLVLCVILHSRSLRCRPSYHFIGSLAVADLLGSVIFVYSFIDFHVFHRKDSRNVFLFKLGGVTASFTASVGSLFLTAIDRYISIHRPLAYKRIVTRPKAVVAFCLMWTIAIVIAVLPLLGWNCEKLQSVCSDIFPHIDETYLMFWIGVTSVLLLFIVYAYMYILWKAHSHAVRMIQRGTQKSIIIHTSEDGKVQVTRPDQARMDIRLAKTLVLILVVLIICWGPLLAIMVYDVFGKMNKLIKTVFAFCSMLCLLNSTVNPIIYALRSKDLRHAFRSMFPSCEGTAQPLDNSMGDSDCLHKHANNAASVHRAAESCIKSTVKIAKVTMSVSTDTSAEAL

By IC50 is commonly meant the midpoint of a concentration-inhibition curve. For the compound `CC12CCC(C1)C(C)(C)[C@H]2NC(=O)c1nn(-c2ccc(F)cc2F)c2c1CCCCC2Cc1ccc(F)cc1` (stereo partly drawn) [Cpd 97, 1-(2,4-difluoro-phenyl)-8-(4-fluoro-benzyl)-1,4,5,6,7,8-hexahydro-cycloheptapyrazole-3-carboxylic acid [(2S)-1,3,3-trimethyl-bicyclo[2.2.1]hept-2-yl]-amide], on CB2 receptor (Cannabinoid CB2 Receptor Binding IC50, calculated by linear regression from percent inhibition at various test concentrations), the IC50 is 300 nM. For the same compound, the inhibition at 1 µM is 71% at CB2 receptor (read-out: CB2 receptor binding percent inhibition, test concentration 1 μM (footnote 1)) and 38% on CB1 receptor.

For `O=C(NC1CCC1)c1nn(C2CCCCC2)c2c1CCCCC2Cc1ccc(F)cc1` (stereo not shown) [Cpd 57, 1-cyclohexyl-8-(4-fluoro-benzyl)-1,4,5,6,7,8-hexahydro-cycloheptapyrazole-3-carboxylic acid cyclobutylamide], at CB2 receptor, the “CB2 receptor binding percent inhibition” value was 29%. Further, at CB1 receptor, the inhibition at 1 µM turned out to be 35%.

In the case of `C[C@@H](NC(=O)c1nn(-c2ccncc2)c2c1CCCC/C2=C\c1ccc(Cl)cc1)c1ccccc1` [Cpd 170, (8E)-8-(4-chloro-benzylidene)-1-pyridin-4-yl-1,4,5,6,7,8-hexahydro-cycloheptapyrazole-3-carboxylic acid [(1R)-1-phenyl-ethyl]-amide], the values for the inhibition at 0.2 µM on CB2 receptor (setting [1]) and on CB1 receptor were 27% and 29%, respectively.

With `O=C(NC1CC1)c1nn(C2CCCCC2)c2c1CCCCC2Cc1ccccc1Cl` (stereo not shown) [Cpd 31, 8-(2-chloro-benzyl)-1-cyclohexyl-1,4,5,6,7,8-hexahydro-cycloheptapyrazole-3-carboxylic acid cyclopropylamide], the “CB2 receptor binding percent inhibition” value at CB2 receptor is on record as 35%. Further, the inhibition at 1 µM on CB1 receptor was found to be 0%.

Turning to `COC(=O)[C@H](Cc1ccc(F)cc1)NC(=O)c1nn(C2CCCCC2)c2c1CCCCC2Cc1cccc(F)c1` (stereo partly drawn) [Cpd 73, (2S)-2-{[1-cyclohexyl-8-(3-fluoro-benzyl)-1,4,5,6,7,8-hexahydro-cycloheptapyrazole-3-carbonyl]-amino}-3-(4-fluoro-phenyl)-propionic acid methyl ester], at CB2 receptor, the “CB2 receptor binding percent inhibition” value turned out to be 8%. Besides, the “CB1 receptor binding average percent inhibition” value on CB1 receptor (value shown is an average percent inhibition (footnote 5), concentration not given) is listed as “^(5)24%”.

Turning to `O=C(NCc1cccc(C(F)(F)F)c1)c1nn(Cc2ccccc2)c2c1CCCCC2c1ccccc1` (stereo not shown) [Cpd 69, 1-benzyl-8-phenyl-1,4,5,6,7,8-hexahydro-cycloheptapyrazole-3-carboxylic acid 3-trifluoromethyl-benzylamide], the inhibition at 0.25 µM on CB2 receptor (test concentration 0.25 μM (footnote 8), read-out: CB2 receptor binding percent inhibition) was 12%; at CB1 receptor, 23%.

On to `O=C(NC1CC1)c1nn(-c2ccc(Cl)cc2Cl)c2c1CCCCC2Cc1ccc(Cl)cc1` (stereo not shown) [Cpd 38, 8-(4-chloro-benzyl)-1-(2,4-dichloro-phenyl)-1,4,5,6,7,8-hexahydro-cycloheptapyrazole-3-carboxylic acid cyclopropylamide], for which the “CB2 receptor binding percent inhibition” value at CB2 receptor turned out to be 0%. In addition, on CB1 receptor, the inhibition at 1 µM was found to be 39%.

As for `O=C(N[C@H](CO)c1ccccc1)c1nn(-c2ccc(Cl)cc2Cl)c2c1CCCC[C@@H]2Cc1cccc(Cl)c1` [Cpd 161, (8R)-8-(3-chloro-benzyl)-1-(2,4-dichloro-phenyl)-1,4,5,6,7,8-hexahydro-cycloheptapyrazole-3-carboxylic acid [(1S)-2-hydroxy-1-phenyl-ethyl]-amide], the inhibition at 0.2 µM on CB2 receptor (setting [1]) stood at 3%; on CB1 receptor, 35%.

On to `O=C(N[C@H](CO)c1ccccc1)c1nn(-c2ccc(F)cc2F)c2c1CCCCC2Cc1cccc(F)c1` (stereo partly drawn) [Cpd 168, 1-(2,4-difluoro-phenyl)-8-(3-fluoro-benzyl)-1,4,5,6,7,8-hexahydro-cycloheptapyrazole-3-carboxylic acid [(1S)-2-hydroxy-1-phenyl-ethyl]-amide], for which the inhibition at 0.2 µM on CB2 receptor (setting [1]) turned out to be 11%; at CB1 receptor, 18%.

With `O=C(NC1CC1)c1nn(Cc2ccc(Cl)cc2)c2c1CCCCC2Cc1ccc(Cl)cc1` (stereo not shown) [Cpd 34, 1,8-bis-(4-chloro-benzyl)-1,4,5,6,7,8-hexahydro-cycloheptapyrazole-3-carboxylic acid cyclopropylamide], at CB2 receptor, the “CB2 receptor binding percent inhibition” value is 0%. On CB1 receptor, the inhibition at 1 µM worked out at 0%.

With `CC12CCC(C1)C(C)(C)[C@H]2NC(=O)c1nn(C2CCCCC2)c2c1CCCCC2Cc1ccccc1Cl` (stereo partly drawn) [Cpd 11, 8-(2-chloro-benzyl)-1-cyclohexyl-1,4,5,6,7,8-hexahydro-cycloheptapyrazole-3-carboxylic acid [(2S)-1,3,3-trimethyl-bicyclo[2.2.1]hept-2-yl]-amide], at CB2 receptor, the “CB2 receptor binding percent inhibition” value is 21%. In addition, the inhibition at 1 µM at CB1 receptor turned out to be 17%.

Regarding `O=C(NC1C2CC3CC(C2)CC1C3)c1nn(C2CCCCC2)c2c1CCCCC2Cc1ccccc1Cl` (stereo not shown) [Cpd 13, 8-(2-chloro-benzyl)-1-cyclohexyl-1,4,5,6,7,8-hexahydro-cycloheptapyrazole-3-carboxylic acid adamantan-2-ylamide], the “CB2 receptor binding percent inhibition” value on CB2 receptor is listed as 14%. For the same compound, the inhibition at 1 µM at CB1 receptor was 0%.

Turning to `O=C(NC12CC3CC(CC1C3)C2)c1nn(C2CCCCC2)c2c1CCCCC2Cc1cccc(Cl)c1` (stereo not shown) [Cpd 9, 8-(3-chloro-benzyl)-1-cyclohexyl-1,4,5,6,7,8-hexahydro-cycloheptapyrazole-3-carboxylic acid (hexahydro-2,5-methano-pentalen-3a-yl)-amide], at CB2 receptor, the “CB2 receptor binding percent inhibition” value worked out at 4%. In addition, on CB1 receptor, the inhibition at 1 µM is 18%.

With `CCOC(=O)[C@@H]1C2CCC(C2)[C@@H]1NC(=O)c1nn(C2CCCCC2)c2c1CCCCC2Cc1ccc(F)cc1` (stereo partly drawn) [Cpd 106, (2R,3S)-3-{[1-cyclohexyl-8-(4-fluoro-benzyl)-1,4,5,6,7,8-hexahydro-cycloheptapyrazole-3-carbonyl]-amino}-bicyclo[2.2.1]heptane-2-carboxylic acid ethyl ester], the “CB2 receptor binding percent inhibition” value on CB2 receptor is 95%. The inhibition at 1 µM at CB1 receptor is 45%.

With `O=C(NN1CCCCC1)c1nn(Cc2ccccc2)c2c1CCCCC2c1ccccc1` (stereo not shown) [Cpd 68, 1-benzyl-8-phenyl-1,4,5,6,7,8-hexahydro-cycloheptapyrazole-3-carboxylic acid piperidin-1-ylamide], the inhibition at 0.25 µM on CB2 receptor (read-out: CB2 receptor binding percent inhibition, test concentration 0.25 μM (footnote 8)) stood at 27%; on CB1 receptor it was 0%.

For the compound `C[C@@H](NC(=O)c1nn(-c2cc(Cl)ccc2Cl)c2c1CCCC/C2=C\c1ccc(Cl)cc1)C1CCCCC1` [Cpd 196, (8E)-8-(4-chloro-benzylidene)-1-(2,5-dichloro-phenyl)-1,4,5,6,7,8-hexahydro-cycloheptapyrazole-3-carboxylic acid [(1R)-1-cyclohexyl-ethyl]-amide], the inhibition at 0.2 µM at CB2 receptor (read-out: CB2 receptor binding percent inhibition, test concentration 0.2 μM (footnote 2)) was found to be 49%; on CB1 receptor it was 67%.

As for `Cn1nc(/C=C/S(=O)(=O)NN2CCOCC2)c2c1C(Cc1cccc(F)c1)CCCC2` (stereo not shown) [Cpd 125, (2E)-2-[8-(3-fluoro-benzyl)-1-methyl-1,4,5,6,7,8-hexahydro-cycloheptapyrazol-3-yl]-ethenesulfonic acid morpholin-4-ylamide], the “CB2 receptor binding percent inhibition” value at CB2 receptor came to 30%. At CB1 receptor, the inhibition at 1 µM turned out to be 0%.

As for `C[C@H](NC(=O)c1nn(-c2ccncc2)c2c1CCCC/C2=C\c1ccc(Cl)cc1)C1CCCCC1` [Cpd 181, (8E)-8-(4-chloro-benzylidene)-1-pyridin-4-yl-1,4,5,6,7,8-hexahydro-cycloheptapyrazole-3-carboxylic acid [(1S)-1-cyclohexyl-ethyl]-amide], the results for the inhibition at 0.2 µM at CB2 receptor (setting [1]) and at CB1 receptor were 57% and 32%, respectively.

Regarding `O=C(N[C@H](CCl)c1ccccc1)c1nn(-c2nccc(C(F)(F)F)n2)c2c1CCCCC2Cc1cccc(Cl)c1` (stereo partly drawn) [Cpd 179, 8-(3-chloro-benzyl)-1-(4-trifluoromethyl-pyrimidin-2-yl)-1,4,5,6,7,8-hexahydro-cycloheptapyrazole-3-carboxylic acid [(1S)-2-chloro-1-phenyl-ethyl]-amide], the inhibition at 0.2 µM turned out to be 29% at CB2 receptor (setting [1]) and 0% at CB1 receptor.

As for `COc1ccc(/C=C2\CCCCc3c(C(=O)N[C@@H]4CCC[C@H]4O)nn(-c4ccc(Cl)cc4Cl)c32)cc1` [Cpd 221, (8E)-1-(2,4-dichloro-phenyl)-8-(4-methoxy-benzylidene)-1,4,5,6,7,8-hexahydro-cycloheptapyrazole-3-carboxylic acid [(1R,2R)-2-hydroxy-cyclopentyl)-amide], the inhibition at 0.2 µM on CB2 receptor (setting [1]) amounted to 24%.
